Results: patent US6723716B1, “7-acylamino-3-heteroarylthio-3-cephem carboxylic acid antibiotics and prodrugs thereof” (Essential Therapeutics, Inc., priority 1999, dated 2004)
Values after ≈ are worked out from the molar mass of the structure shown. Where two headings read alike, the source gives them in different places.

Assays:
E. coli ATCC25992 = test: Broth microdilution MIC (NCCLS); type: cell-based; details: Escherichia coli
In short: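 NCCLS broth microdilution in Mueller-Hinton broth, final inoculum 5×10^5 CFU/mL from early-log cultures (Enterococcus diluted from overnight cultures), serial 2-fold compound dilutions. Plates incubated 24 h at 35° C, read at 650 nm and visually; MIC = lowest concentration preventing growth.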

E. faecium A491 (Amp^R) = test: Broth microdilution MIC (NCCLS); type: cell-based; details: Enterococcus faecium
In short: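 MIC = lowest drug concentration with no bacterial growth, read at 650 nm and visually after 24 h at 35° C. Assay run in MHB per NCCLS, inoculum 5×10^5 CFU/mL, compounds serially diluted 2-fold in plate.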

S. aureus ATCC29213 = test: Human serum binding effect: MIC with and without human serum; type: cell-based, Staphylococcus aureus; details: 1:1 human serum:MHB
In short: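 Serum binding was estimated as the ratio of S. aureus ATCC29213 MIC in 1:1 human serum:Mueller-Hinton broth to MIC without serum. Compounds were serially 2-fold diluted, and wells received an early-log-phase inoculum at 1×10^6 CFU/mL final. Inoculum size was checked by colony counts on TSA after overnight incubation at 35 °C.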

[1] = Pharmacokinetic evaluation in rat (clearance); type: in vivo; details: male, Sprague-Dawley (SD), serum, iv, read-out: Pharmacokinetics Clearance (converted)
Excerpt: Four male SD rats with femoral and jugular vein catheters were obtained from Hilltop Lab Animals, Inc. (Scottdale, Pa.). The catheters in the femoral and jugular veins were filled with 10 units/mL heparin in saline, and kept patent by changing the solution daily. The animals were quarantined for a minimum of two days prior to use, and were maintained on a 12-h light:dark schedule with constant access to food and water before and during the study. On the day of dosing, the animals weighed […] (mean±s.d.).
A 4 mg/mL (active component) dosing solution of mesylate salt of compound 17 was prepared in sterile saline for injection. […] Blood samples (0.2 mL aliquots) were collected from the jugular vein catheter 5, 15, 20, 25, 30, and 45 min, and 1, 2, 3, and 4 h after the start of the infusion. The blood was centrifuged for 10 min and the serum was stored ≦−70° C. until analysis by HPLC.
The plasma concentrations from individual animals were fit to a two-compartment model with zero order input and first-order elimination from the central compartment using weighted nonlinear regression (WinNonlin, Pharsight, Palo Alto, Calif.). Pharmacokinetic parameters were calculated from the fitted parameters using standard equations (Gibaldi M, Perrier D. 1982. Pharmacokinetics, 2nd ed., Marcel Dekker Inc., New York.).

[2] = test system: S. aureus ATCC 13709 (Smith diffuse); test: Murine lethal bacteremic peritonitis (septicemia) efficacy; type: in vivo, mice; details: for responders at 0.156 mg/kg: dose 0.156 mg/kg s.c. at 0 and 2 h post-challenge; for responders at 0.312 mg/kg: dose 0.312 mg/kg s.c. at 0 and 2 h post-challenge; for responders at 0.625 mg/kg: dose 0.625 mg/kg s.c. at 0 and 2 h post-challenge; for responders at 1.25 mg/kg: dose 1.25 mg/kg s.c. at 0 and 2 h post-challenge; for responders at 2.5 mg/kg: dose 2.5 mg/kg s.c. at 0 and 2 h post-challenge; for ED50: ATCC13709, mice, S. aureus ATCC 13709 i.p., s.c. at 0 and 2 h post-challenge, probit method
In short: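 Male Swiss-Webster mice, 10/group, challenged i.p. with 2.98×10^7 cfu log-phase bacteria in 7% hog-gastric mucin. Serial two-fold doses given s.c. at 0 and 2 h post-challenge; ED50 by probit from survival.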

[3] = Staphylococcus aureus, ATCC13709, sc, read-out: Efficacy in murine septicemia % survival

| Structure (SMILES) | MIC (E. coli ATCC25992) | MIC (E. faecium A491 (Amp^R)) | Human serum binding effect (ratio of MIC value determined with and without human serum added) (S. aureus ATCC29213) | clearance ([1]; dose 42.5 mg/kg) | responders at 0.078 mg/kg ([2]; Staphylococcus aureus, ATCC13709, sc, dose 0.078 mg/kg s.c. at 0 and 2 h post-challenge, read-out: Efficacy in murine septicemia % survival) | responders at 0.156 mg/kg [2, 3] | responders at 0.312 mg/kg [2, 3] | responders at 0.625 mg/kg [2, 3] | responders at 1.25 mg/kg [2, 3] | clearance ([1]; dose 20.0 mg/kg) | responders at 2.5 mg/kg [2, 3] | ED50 ([2]; Staphylococcus aureus) | Efficacy in murine septicemia % survival ([2]; dose 5 mg/kg s.c. at 0 and 2 h post-challenge) |
| --- | --- | --- | --- | --- | --- | --- | --- | --- | --- | --- | --- | --- | --- |
| NCCSCc1cnccc1SC1=C(C(=O)O)N2C(=O)C(NC(=O)/C(=N\O)c3csc(N)n3)C2SC1 (centres unmarked) [Cmpd 19] | 4 µg/mL (≈ 7.05 µM) | > 32 µg/mL | 2 | 20.8 mL/min/kg | 20% | 20% | 20% | 80% | 100% |  |  |  |  |
| NCCSCc1cnccc1SC1=C(C(=O)O)N2C(=O)[C@@H](NC(=O)/C(=N\O)c3nc(N)sc3Cl)[C@H]2SC1 [Cmpd 20, (7R)-7-[(Z)-2-(2-amino-5-chlorothiazol-4-yl)-2-(hydroxyimino)acetamido]-3-[3-(2-aminoethylthiomethyl)pyrid-4-ylthio]-3-cephem-4-carboxylic acid] | 8 µg/mL (≈ 13.3 µM) | 8 µg/mL (≈ 13.3 µM) | 3 |  |  | 20% | 10% | 30% | 58% | 26.5 mL/min/kg | 80% | 1 mg/kg |  |
| N=C(N)NCCSCc1cnccc1SC1=C(C(=O)O)N2C(=O)[C@@H](NC(=O)/C(=N\O)c3nsc(N)n3)[C@H]2SC1 [Cmpd 25, (7R)-7-[(Z)-2-(5-amino-1,2,4-thiadiazol-3-yl)-2-(hydroxyimino)acetamido]-3-[3-(2-guanidinoethylthiomethyl)pyrid-4-ylthio]-3-cephem-4-carboxylic acid] | 1 µg/mL (≈ 1.64 µM) | 32 µg/mL (≈ 52.4 µM) | 1 |  |  |  | 80% | 100% | 100% | 18.7 mL/min/kg | 100% | < 0.31 mg/kg | 5/100% |
